{"source": "PubChem BioAssay AID1996"}
{"settings": "buffer; pH 7.4; 200.0 µM", "units": {"solubility kinetic": "µg/mL"}}
{"smiles": "N/C(=N\\OC(=O)c1cccs1)c1ccc(Cl)cc1", "solubility kinetic": 3.5}
{"smiles": "O=C(CCc1c[nH]c2ccccc12)NCCOc1ccccc1", "solubility kinetic": 43.7}
{"smiles": "COc1ccc(CNC(=O)c2cccnc2)cc1", "solubility kinetic": "> 36.3"}
{"smiles": "Nc1nc(SCC(=O)Nc2cccnc2Cl)n[nH]1", "solubility kinetic": "> 42.7"}
{"smiles": "Cc1ccc(C(=O)NCC(=O)Nc2ccc(S(=O)(=O)Nc3cc(C)nc(C)n3)cc2)cc1", "solubility kinetic": "> 68"}
{"smiles": "CCN(CC)CCCNC(=O)c1cc(-c2ccc3c(c2)OCO3)on1", "solubility kinetic": 49.4}
{"smiles": "CCc1c(C)nc(N2CCN(c3ccc(OC)cc3)CC2)[nH]c1=O", "solubility kinetic": 5.5}
{"smiles": "O=C(NCC(O)c1ccc([N+](=O)[O-])cc1)C1CCCCC1", "note": "(configuration not stated)", "solubility kinetic": 28.4}
{"smiles": "Cc1ccc(NC(=O)COc2ccccc2)cc1Cl", "solubility kinetic": 2.4}
{"smiles": "Cc1cccc(C)c1NC(=O)CNC(=O)c1cnccn1", "solubility kinetic": "> 42.6"}
{"smiles": "CCc1ccc(C2CC(=O)Nc3c2c(=O)nc2c(C)cccn32)cc1", "note": "(configuration not stated)", "solubility kinetic": "> 50"}
{"smiles": "O=C(Cc1ccc(Cl)cc1Cl)Nc1ccncc1Cl", "solubility kinetic": 12.4}
{"smiles": "[Br-].c1ccc(Cc2cc[n+](Cc3ccccn3)cc2)cc1", "solubility kinetic": "> 51.2"}
{"smiles": "COc1ccc(NC(=O)CSc2nc3ccccc3c(=O)n2C)cc1", "solubility kinetic": "< 0.3"}
{"smiles": "Cc1ccc(NC(=O)c2cnccn2)cc1S(=O)(=O)N1CCCCCC1", "solubility kinetic": 5.4}
{"smiles": "COc1ccc(C=O)cc1CN1C(=O)c2ccccc2C1=O", "solubility kinetic": 36.8}
{"smiles": "CC(=O)NC1C(O)OC(CO)C(O)C1O", "note": "(configuration not stated)", "solubility kinetic": "> 33.2"}
{"smiles": "OC(CCN1CCCCC1)c1ccc(-c2ccccc2)cc1", "note": "(configuration not stated)", "solubility kinetic": "> 44.3"}
{"smiles": "CN(C)c1cccc(C(=O)NCCCn2ccc3ccccc32)c1", "solubility kinetic": 23}
{"smiles": "Cc1ccc(NC(=O)Cn2c(=O)oc3ccccc32)c(C)c1", "solubility kinetic": 13.9}
{"smiles": "Cc1ccc(C(=O)C(C)OC(=O)c2ccc(Cl)nc2)cc1", "note": "(configuration not stated)", "solubility kinetic": 34.1}
{"smiles": "O=C(COc1ccc2ccc(=O)oc2c1)NC1CCCC1", "solubility kinetic": "> 43.1"}
{"smiles": "O=C(N/N=C/c1ccccc1Br)C1CC1", "solubility kinetic": "> 40.1"}
{"smiles": "COc1ccc(CC(=O)NCCCSc2ccccc2)cc1OC", "solubility kinetic": 45.9}
{"smiles": "O=C(CCC(=O)N1CCCC1)N1CCCC1", "solubility kinetic": "> 33.6"}
{"smiles": "Cc1ccc(NC(=O)CN(C)C(=O)c2ccc(Cl)c(S(=O)(=O)NCc3ccco3)c2)cc1", "solubility kinetic": 9}
{"smiles": "CCSc1ncc(Cl)c(C(=O)Nc2ccccc2Cl)n1", "solubility kinetic": "< 0.2"}
{"smiles": "Cc1nc(NC(=O)C2CCCCC2C(=O)O)sc1C", "note": "(configuration not stated)", "solubility kinetic": 40.5}
{"smiles": "Cl.Clc1ccc2sc(C3CCNCC3)nc2c1", "solubility kinetic": 43.3}
{"smiles": "O=C(CN1CCCCC1)Nc1ccccc1Cl", "solubility kinetic": 26.8}
{"smiles": "COCCNC(=O)C(OC(=O)C1=Cc2ccccc2OC1)C(C)C", "note": "(configuration not stated)", "solubility kinetic": "> 50"}
{"smiles": "C=CCNC(=O)c1ccc(N(Cc2ccccc2)S(C)(=O)=O)cc1", "solubility kinetic": "> 51.7"}
{"smiles": "O=C(O)/C=C/c1ccc(-n2ccnc2)cc1", "solubility kinetic": "> 32.1"}
{"smiles": "CCOC(=O)C1CCCN(C(=S)Nc2ccc(OC)cc2)C1", "note": "(configuration not stated)", "solubility kinetic": 46}
{"smiles": "Nc1nc2ncc(C(=O)c3cc(F)ccc3O)cc2s1", "solubility kinetic": 7}
{"smiles": "Cc1ccc(S(=O)(=O)NCCNc2ccc([N+](=O)[O-])cc2)cc1", "solubility kinetic": 32.8}
{"smiles": "CCCC[N+]1(C)[C@@H]2CC(OC(=O)[C@H](CO)c3ccccc3)C[C@H]1[C@@H]1O[C@@H]12.[Br-]", "note": "(some centres not stated)", "solubility kinetic": "> 66.1"}
{"smiles": "CCN(CC)c1cc(C)c(C#N)c2nc3ccccc3n12", "solubility kinetic": 2}
{"smiles": "COc1cc(C(=O)O/N=C(\\N)c2ccccn2)cc(OC)c1OC", "solubility kinetic": "> 49.7"}
{"smiles": "Cc1ccc(O)c(CNc2nccs2)c1", "solubility kinetic": 7.4}
{"smiles": "Cc1ccc(N2C(=O)C3C=NNC3C2=O)cc1", "note": "(configuration not stated)", "solubility kinetic": "> 34.4"}
{"smiles": "COc1cccc(N2CCN(C(=O)CCNS(=O)(=O)c3ccc(F)c(F)c3)CC2)c1", "solubility kinetic": 56.7}
{"smiles": "CC(=O)Nc1nc(-c2ccc3c(c2)OCO3)cs1", "solubility kinetic": 8.5}
{"smiles": "COC(=O)c1ccc(Nc2nc(-c3ccncc3)nc3ccccc23)cc1", "solubility kinetic": 1.1}
{"smiles": "c1ccc(CCN2CCC3(CC2)OCCO3)cc1", "solubility kinetic": 29.2}
{"smiles": "COc1cc(C(=O)OCc2cc(=O)n3ccsc3n2)ccc1OC(C)C", "solubility kinetic": 5.3}
{"smiles": "CCCCOc1ccc(C(=O)CCN2CCCCC2)cc1.Cl", "solubility kinetic": "> 48.9"}
{"smiles": "Cc1ccccc1OCC(=O)NCCCNC(=O)c1cccnc1", "solubility kinetic": "> 49.1"}
{"smiles": "CCOC(=O)c1c(NC(=S)Nc2cccnc2)sc(C)c1C", "solubility kinetic": 20.1}
{"smiles": "CC(=O)c1cccc(NC(=O)NC2CCCCCCC2)c1", "solubility kinetic": 2.5}
{"smiles": "O=C(O)Cc1c(-c2ccccc2)c2cc(Br)ccc2[nH]c1=O", "solubility kinetic": 50.2}
{"smiles": "COC(=O)CCC(=O)NNC(=O)c1ccc([N+](=O)[O-])cc1", "solubility kinetic": "> 44.3"}
{"smiles": "O=[N+]([O-])c1ccc2nonc2c1Nc1ccccc1", "solubility kinetic": 0.7}
{"smiles": "C=CCn1c(=NC(=O)c2cccs2)sc2cccc(OC)c21", "solubility kinetic": "< 0.4"}
{"smiles": "CC1CC1C(=O)OCC(=O)NCc1ccccc1", "note": "(configuration not stated)", "solubility kinetic": "> 37.1"}
{"smiles": "O=[N+]([O-])c1cccc(-c2csc(CS(=O)(=O)Cc3ccco3)n2)c1", "solubility kinetic": 0.6}
{"smiles": "CC(=O)Nc1ccc(C(=O)OCC(=O)N(C)C2CCCCC2)cc1", "solubility kinetic": 36}
{"smiles": "COc1cccc(NC(=O)CN(C)C(=O)[C@@H]2CCCN2C(=O)c2cccs2)c1", "solubility kinetic": "> 60.2"}
{"smiles": "O=C(Nc1cccc(S(=O)(=O)NC2=NCCC2)c1)c1ccc(C(F)(F)F)cc1", "solubility kinetic": 7.3}
{"smiles": "Cc1ccc(OCCNC(=O)CNC(=O)c2ccc(C)cc2)cc1", "solubility kinetic": 6.8}
{"smiles": "S=C(NCc1ccccc1)Nc1nccs1", "solubility kinetic": 3}
{"smiles": "CCOC(=O)Cc1csc(NC(=O)c2ccc(F)cc2)n1", "solubility kinetic": "> 46.2"}
{"smiles": "O=C(NC(=S)Nc1ccc(O)cc1)C1CCCC1", "solubility kinetic": "> 39.7"}
{"smiles": "O=c1oc2ccccc2c(Cl)c1CN1CCCCC1", "solubility kinetic": 41.4}
{"smiles": "Cn1cccc1C(=O)OCc1cc(-c2ccco2)on1", "solubility kinetic": 13.8}
{"smiles": "COc1ccc(C(=O)ON=C2CCN(C)CC2)cc1.Cl", "solubility kinetic": "> 44.8"}
{"smiles": "CCN(C(=O)CSc1nc(C)cc(=O)[nH]1)C1CCCCC1", "solubility kinetic": "> 46.4"}
{"smiles": "O=S(=O)(Nc1ccc(Br)cc1)c1cccc2nonc12", "solubility kinetic": "> 53.1"}
{"smiles": "CCCN(CCO)C1CCN(CCc2ccccc2)CC1", "solubility kinetic": 27.4}
{"smiles": "O=C(/C=C/c1ccccc1)OCCN1C(=O)c2ccccc2C1=O", "solubility kinetic": "< 0.7"}
{"smiles": "Nc1nc(C(c2ccccc2)c2ccccc2)cs1", "solubility kinetic": 11}
{"smiles": "CC1CCN(CCc2nc3cc(NC(=O)C(C)C)ccc3n2C)CC1", "solubility kinetic": 36.7}
{"smiles": "Cc1ccc(CNC(=S)NCc2ccncc2)cc1", "solubility kinetic": 39.7}
{"smiles": "Cc1ccc(S(=O)(=O)CCC(=O)NCCc2ccccc2)cc1", "solubility kinetic": "> 49.7"}
{"smiles": "N#C/C(=C\\c1cccc([N+](=O)[O-])c1)c1ccccn1", "solubility kinetic": 3.6}
{"smiles": "CC(=O)c1ccc(NC(=O)CCOc2cc(C)ccc2C)cc1", "solubility kinetic": 5}
{"smiles": "CCOc1cccc(C(=O)Nc2cccc(NC(=O)c3ccco3)c2)c1", "solubility kinetic": 3.9}
{"smiles": "CC(C)c1ccc(NC(=O)NCc2ccc3c(c2)OCO3)cc1", "solubility kinetic": "< 0.3"}
{"smiles": "O=S(=O)(Nc1ccc(F)cc1)c1cccc2nsnc12", "solubility kinetic": "> 46.4"}
{"smiles": "COc1ccccc1CNC(=O)CSc1nc(C)cs1", "solubility kinetic": "> 46.3"}
{"smiles": "CCOc1ccccc1NC(=O)COC(=O)C1CC1", "solubility kinetic": "> 39.5"}
{"smiles": "CC(C)c1ccc(C(=O)OCC(=O)c2c(N)n(C)c(=O)n(C)c2=O)cc1", "solubility kinetic": 4.4}
{"smiles": "O=C(CSc1nc2ccccc2[nH]1)c1c[nH]c2ccccc12", "solubility kinetic": 0.6}
{"smiles": "COc1cc2c(cc1OC)C(COc1ccc(C(C)C)cc1)NCC2", "note": "(configuration not stated)", "solubility kinetic": 35.1}
{"smiles": "CCOC(=O)c1sc(Nc2nc(C)cc(C)n2)nc1C", "solubility kinetic": 1.2}
{"smiles": "CCCCc1nc2sc3c(=O)[nH]cnc3c2c2c1CCCC2", "solubility kinetic": "< 0.2"}
{"smiles": "O=c1sc(Nc2ccccc2)nc2ccccc12", "solubility kinetic": 6.5}
